Assay results as given in patent US12390437B2, “Itaconic acid derivatives and uses thereof intreating an inflammatory disease or a disease associated with an undesirable immune response” (Sitryx Therapeutics Limited, priority 2019, dated 2025).
Like-named read-outs stand apart in the source and are kept apart here.

Legend:
NQO1 = NQO1 enzyme activation assay as a readout of NRF2 activation in THP-1 cells; format: cell-based; conditions: Homo sapiens; for Emax: THP-1, percentage activation at top concentration, normalised to DMF (100%) and vehicle controls; for EC50: differentiated THP-1 cells, LPS, 48 hr
Protocol: NQO1 Enzyme Activation Assay as a Readout of NRF2 Activation in THP-1 Cellular Background
NAD(P)H dehydrogenase [quinone] […] Induction of this gene is concomitant with the inhibition of proinflammatory cytokine transcription and suppression of the inflammatory response (Kobayashi E. H. et al., 2016). The NQO1 enzyme activation activities of compounds of formula (IW-1) were determined using a cellular based NQO1 activation assay (Abcam). The NQO1 activation assay was run in differentiated THP-1 cells (a human monocyte-like cell line) as described below. All reagents described are from Sigma-Aldrich unless specified otherwise. Compounds were prepared as 10 mM DMSO stocks.
THP-1 cells were expanded as a suspension up to 80% confluence in appropriate growth medium. Cells were harvested, suspended, treated with phorbol 12-myristate 13-acetate (PMA) and plated according to the cell density required for each plate format over a 72 hr period (37° C./5% CO2).
Following 72 hrs of THP-1 cell incubation, cellular medium was removed and replaced with fresh media. Working concentrations of compounds were prepared and pre-incubated for 30 minutes (37° C./5% CO2). Compound treatment was then applied to the PMA treated THP-1 cell plate followed by LPS treatment. A ‘low’ (DMSO vehicle only) control and ‘high’ (designated concentration of dimethyl fumarate) was applied to each plate at the point of compound treatment. Cells were subsequently incubated for a 48 hr period (37° C./5% C02) after which all NQO1 assay reagents were prepared according to the manufacturer's instructions. NQO1 extraction buffer was applied to PBS washed THP-1 cells and incubated on ice for 15 minutes to prepare THP-1 lysates for the NQO1 activity assay. THP-1 lysates were diluted 1:5 with PBS and treated with a 1:1 volume of kit prepared NQO1 Reaction Buffer. Absorbance was subsequently measured kinetically on an appropriate reader over a 6 minute period.
For activation determination, the fold change in response per well was determined by first calculating the average NQO1 activation data for the vehicle control and then dividing the individual well response by the averaged NQO1 response for the vehicle control as shown below: Fold change=(Sample value)/MeanMin Where ‘Min’=vehicle control only
The relative 50% activation concentration (EC50) was determined from the resulting fold change response curve. The maximum efficacy (Emax) was reported as the percentage activation calculated at the top concentration of compound used in the titration applied. If a full curve was unattainable preventing a correct curve fit, the Emax value was extrapolated using existing curve data. All percentage activation data were normalised to the DMF and vehicle controls, meaning the Emax represents the percentage […] achieved by a compound at a particular concentration relative to that achieved by DMF (set as the ‘High’ control and therefore representative of 100% activation).

NRF2 = NRF2 +/-GSH activation assay (DiscoverX PathHunter NRF2 translocation kit, U2OS cells); format: cell-based; conditions: Homo sapiens
How it was run: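 PathHunter U2OS cells, plated 24 hrs, measured NRF2 nuclear translocation by enzyme-fragment complementation luminescence after 6 hours compound exposure at 37 °C. For +GSH, compound was pre-incubated 30 minutes with GSH (6 mM working stock). EC50 from % activation normalised to dimethyl fumarate high control.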

[1] = test system: IL-1β cytokine output from THP-1s; assay: THP-1 AlphaLISA IL-1β cytokine assay; format: cell-based, human; conditions: for IC50: Homo sapiens, read-out: IL-1β (IC50)
How it was run: (§1)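 Cells are differentiated with PMA over 72 h, switched to 1% FBS medium and treated with compound for 30 min before LPS stimulation for 24 h. Nigericin is added for a final hour, and secreted cytokine is measured by AlphaLISA, with IC50 fitted from percent inhibition.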

[2] = test system: IL-6 cytokine output from THP-1s; assay: THP-1 AlphaLISA IL-6 cytokine assay; format: cell-based, human; conditions: for IC50: Homo sapiens
How it was run: as §1

[3] = Mouse pharmacokinetic study, oral administration; format: in vivo; conditions: mouse plasma, Example 112 dosed orally at 100 mg/kg (Intermediate 8 = metabolite)
Protocol: Pharmacokinetic studies were carried out in 6-8-week-old male C57BL/6 mice having free access to food and water. Intravenous dosing was conducted at 10 mg/kg (5 mL/kg; vehicle: 10% DMSO-90% (25% HP-13-CD in water)) via tail vein injection, with sampling at 3 min, 8 min, 15 min, 30 min, 1, 2, 4, 6 and 8 hours, i.e., 9 time points in total (N=3/time point), using semi-serial bleeding for plasma. Oral compound administration, via gavage, was carried out at 100 mg/kg (10 mL/kg; vehicle: 5% DMSO-95% (0.5% HPMC+0.1% Tween 80 in water)), with sampling at 5 min, 15 min, 30 min, 1, 2, 4, 6, 8 and 24 hours, i.e., 9 time points in total (N=3/time point), using semi-serial bleeding for plasma.
For both intravenous and oral routes, the mice were restrained manually at the designated time points, with ca. 110 μL of blood being taken into K2EDTA tubes via the facial vein. Blood samples were put on ice and centrifuged to obtain plasma samples from which the concentration at each time point was measured by LC-MS/MS.

[4] = U2OS, normalised to dimethyl fumarate 'High' control, GSH condition not stated in Table 5, read-out: NRF2 activation Emax
[5] = U2OS PathHunter cells, 6 hours, GSH condition not stated in Table 5, read-out: NRF2 activation EC50
[6] = THP-1, PMA-differentiated THP-1 cells, LPS 24 hr then Nigericin 1 hour
[7] = PMA-differentiated THP-1 cells, LPS 24 hr then Nigericin 1 hour
[8] = Table 10, assay of Biological Example 1 (THP-1)

Compound | EC50 (NQO1) | EC50 (NRF2; [5]) | IC50 [1, 6] | IC50 [2, 7] | Emax (NQO1) | Emax (NRF2; [4]) | further results
C=C(CC(=O)OCCCC)C(=O)OCCC#N [Example 8, 1-(2-cyanoethyl) 4-butyl 2-methylenesuccinate] | 35.4 µM | – | – | – | 152% | – | –
C=C(CC(=O)OCCCCCCCC)C(=O)OCCOC(F)(F)F [Example 13, 4-octyl 1-(2-(trifluoromethoxy)ethyl) 2-methylenesuccinate] | 2.8 µM | – | – | – | 45% | – | –
C=C(CC(=O)OCCCCCCCC)C(=O)OCCCS(C)(=O)=O [Example 18, 1-(3-(methylsulfonyl)propyl) 4-octyl 2-methylenesuccinate] | 5.4 µM | – | – | – | 67% | – | –
C=C(CC(=O)OCCCC)C(=O)OC1COC1 [Example 37, 4-butyl 1-(oxetan-3-yl) 2-methylenesuccinate] | 21 µM | – | – | – | 105% | – | –
C=C(CC(=O)OC1CCCCCCC1)C(=O)OC [Example 41, 4-cyclooctyl 1-methyl 2-methylenesuccinate] | 38.1 µM | – | – | – | 129% | – | –
C=C(CC(=O)OC1CCC1)C(=O)OC1CCC1 [Example 43, dicyclobutyl 2-methylenesuccinate] | 170 µM | – | – | – | 150% | – | –
C=C(CC(=O)OC1CCCCCCC1)C(=O)OC1CS(=O)(=O)C1 [Example 54, 4-cyclooctyl 1-(1,1-dioxidothietan-3-yl) 2-methylenesuccinate] | – | 2.8 µM | 3.9 µM | 1.5 µM | – | 105% | –
C=C(CC(=O)OC1CCCCCCC1)C(=O)OC1CCN(S(C)(=O)=O)CC1 [Example 69, 4-cyclooctyl 1-(1-(methylsulfonyl)piperidin-4-yl) 2-methylenesuccinate] | – | 14.7 µM | 1.7 µM | 2.2 µM | – | 111% | –
C=C(CC(=O)OCc1ccc(F)cc1)C(=O)OCCC(=O)O [Example 81, 3-((4-((4-fluorobenzyl)oxy)-2-methylene-4-oxobutanoyl)oxy)propanoic acid] | – | 24.9 µM | 100 µM | 52.1 µM | – | 110% | –
C=C(CC(=O)OCC(C)(C)C)C(=O)OCC(=O)O [Example 92, 2-((2-methylene-4-(neopentyloxy)-4-oxobutanoyl)oxy)acetic acid] | – | 37.8 µM | 75.3 µM | 21.2 µM | – | 109% | –
C=C(CC(=O)OCc1ccc(F)cc1)C(=O)OCC(=O)O [Example 93, 2-((4-((4-fluorobenzyl)oxy)-2-methylene-4-oxobutanoyl)oxy)acetic acid] | – | 36 µM | 73.8 µM | 28.1 µM | – | 118% | –
C=C(CC(=O)OCCCCCCCC)C(=O)OCC(=O)N(C)CC(=O)O [Example 98, 2-(N-methyl-2-((2-methylene-4-(octyloxy)-4-oxobutanoyl)oxy)acetamido)acetic acid] | – | 14.7 µM | 2.1 µM | 4.3 µM | – | 193% | –
C=C(CC(=O)OCCCCCCCC)C(=O)OCC(=O)N1CCC[C@H]1C(=O)O [Example 99, (2-((2-methylene-4-(octyloxy)-4-oxobutanoyl)oxy)acetyl)-L-proline] | – | 37.6 µM | 1.9 µM | 2.5 µM | – | 227% | –
C=C(CC(=O)O[C@H](C)CCCCCC)C(=O)O [Intermediate 8, (R)-2-methylene-4-(octan-2-yloxy)-4-oxobutanoic acid] | – | – | – | – | – | – | concentration at 0.083 h ([3]; male, C57BL/6, po, time 0.083 h, read-out: Example 112 and Intermediate 8 concentrations following oral administration): 18500 ng/mL; concentration at 0.25 h ([3]; male, C57BL/6, po, time 0.25 h, read-out: Example 112 and Intermediate 8 concentrations following oral administration): 19800 ng/mL; concentration at 0.5 h ([3]; male, C57BL/6, po, time 0.5 h, read-out: Example 112 and Intermediate 8 concentrations following oral administration): 12800 ng/mL; concentration at 1 h ([3]; male, C57BL/6, po, time 1 h, read-out: Example 112 and Intermediate 8 concentrations following oral administration): 4710 ng/mL; concentration at 2 h ([3]; male, C57BL/6, po, time 2 h, read-out: Example 112 and Intermediate 8 concentrations following oral administration): 2160 ng/mL; concentration at 4 h ([3]; male, C57BL/6, po, time 4 h, read-out: Example 112 and Intermediate 8 concentrations following oral administration): 719 ng/mL; concentration at 6 h ([3]; male, C57BL/6, po, time 6 h, read-out: Example 112 and Intermediate 8 concentrations following oral administration): 614 ng/mL; concentration at 8 h ([3]; male, C57BL/6, po, time 8 h, read-out: Example 112 and Intermediate 8 concentrations following oral administration): 132 ng/mL; Example 112 and Intermediate 8 concentrations following oral administration ([3]; time 24 h): BQL; EC50 (NRF2; U2OS, Table 10, assay of Biological Example 5 (NRF2), read-out: EC50): 20.4 µM; Emax (NRF2; U2OS, Table 10, assay of Biological Example 5 (NRF2), read-out: Emax): 165%; IC50 ([1]; THP-1, Table 10, assay of Biological Example 1 (THP-1)): 56.7 µM; IL-1β (IC50) [1, 8]: improved cytokine-lowering potencies compared to dimethyl itaconate; IC50 [2, 8]: 23.7 µM; IL-6 (IC50) [2, 8]: improved cytokine-lowering potencies compared to dimethyl itaconate

Now from value to molecule, other results behind:

EC50 (NQO1) | EC50 (NRF2; [5]) | IC50 [1, 6] | IC50 [2, 7] | Compound | Emax (NQO1) | Emax (NRF2; [4]) | further results
24.3 µM | – | – | – | C=C(CC(=O)OCCCCCCCC)C(=O)OC [Example 42, 1-methyl 4-octyl 2-methylenesuccinate] | 66% | – | –
– | 25 µM | 22.6 µM | 18.6 µM | C=C(CC(=O)OCCCCCC)C(=O)OCCC(=O)O [Example 85, 3-((4-(hexyloxy)-2-methylene-4-oxobutanoyl)oxy)propanoic acid] | – | 163% | –
– | 48.7 µM | 11 µM | 5.1 µM | C=C(CC(=O)OCCCCCCCC)C(=O)OC(C)C(=O)N(C)CC(=O)O (stereo not shown) [Example 100, N-methyl-N-(2-((2-methylene-4-(octyloxy)-4-oxobutanoyl)oxy)propanoyl)glycine] | – | 195% | –
– | 37.9 µM | 15.2 µM | 4.7 µM | C=C(CC(=O)OCCCCCCCC)C(=O)OC(C)C(=O)N1CCC[C@H]1C(=O)O (stereo partly drawn) [Example 101, (2-((2-methylene-4-(octyloxy)-4-oxobutanoyl)oxy)propanoyl)-L-proline] | – | 186% | –
– | 6.5 µM | 1.5 µM | 1.1 µM | C=C(CC(=O)OCCCCCCCC)C(=O)OC(C)C(=O)NCC(=O)O (stereo not shown) [Example 102, (2-((2-methylene-4-(octyloxy)-4-oxobutanoyl)oxy)propanoyl)glycine] | – | 191% | –
